Experimental data reported in patent US20060166900A1, “Salt of morphine-6-glucuronide” (CeNeS Limited, priority 2002, published 2006).

What was measured:
Assay type in all cases: physicochemical
[1] = Colour of solution by visible spectrophotometry on storage (Example 3); details: 5% w/v solution in water
Description: Colour of solution by UV spectrophotometry.
(§1) Each test material was stored between 2-8*C prior to placing on stability. Each material was sub-divided into 900 mg aliquots, transferred to brown opaque HDPE plastic bottles and flushed with Argon prior to sealing. Sufficient samples were provided for each time point as well as spares for each storage condition. The samples were placed in appropriate incubators previously commissioned at storage conditions 25° C./60% RH, 40° C./75% RH and 60° C.
Colour by Visible Spectrophotometry
A 5% w/v solution of test material was prepared in water and the absorbance measured at 420 nm in a 1 cm silica cell using a Unicam UV4 Visible/UV spectrophotometer.

[2] = Water content by Karl Fisher analysis on storage (Example 3)
Description: Water content (% w/w) by Karl Fisher analysis
as §1
Water Content by Karl Fisher Analysis
Water content was determined in duplicate on an aliquot of equilibrated material (approximately 100 mg) using a Tritrino 720 KFS Titrator.

[3] = Stability indicating HPLC assay and related substances on storage (Example 3)
Description: Assay (% w/w) and related substances determination
as §1
Testing Procedures Test for Identity Content and Impurities
Testing was performed in duplicate (2×25 mg) in accordance with a stability indicating HPLC assay method. The assay results were reported as M6G as is, M6G as the anhydrous, solvent free material and the anhydrous solvent free material corrected for the salt form using the relevant conversion factor.

[4] = Visual appearance on storage (Example 3)
Description: as §1
The samples were stored for analysis according to the following table: […]

For `CN1CCC23c4c5ccc(O)c4OC2C(OC2OC(C(=O)O)C(O)C(O)C2O)C=CC3C1C5.O=P(O)(O)O` (stereo not shown) [Morphine-6-glucuronide phosphate], which Colour ([1]; 1 month, 25° C./60% RH) is on record?
Its Colour is 0.053 Abs@420 nm.

And the Colour ([1]; 1 month, 40° C./75% RH)?
The Colour was 0.308 Abs@420 nm.

What about the Colour ([1]; 1 month, 60° C.) of the same compound?
Its Colour is 0.787 Abs@420 nm.

And the Colour ([1]; 3 months, 25° C./60% RH)?
The Colour was 0.098 Abs@420 nm.

What about the Colour ([1]; 3 months, 40° C./75% RH) of the same compound?
Its Colour is 0.878 Abs@420 nm.

What about the Colour ([1]; Initial) of the same compound?
Its Colour is 0.034 Abs@420 nm.

And the Moisture ([2]; 1 month, 25° C./60% RH)?
Its Moisture is 3.91 % w/w.

And the Moisture ([2]; 1 month, 40° C./75% RH)?
Its Moisture is 9.28 % w/w.

And the Moisture ([2]; 1 month, 60° C.)?
The Moisture was 5.12 % w/w.

What about the Moisture ([2]; 3 months, 25° C./60% RH) of the same compound?
Its Moisture is 5.06 % w/w.

And the Moisture ([2]; 3 months, 40° C./75% RH)?
The Moisture was 11.88 % w/w.

What about the “increase in moisture content compared to initial” value ([2]; 40° C./75% RH) of the same compound?
Its value is “around 8%”.

And the Moisture ([2]; Initial)?
Its Moisture is 3.12 % w/w.

And the “Known Related Substances HN33177” value ([3]; 1 month, 25° C./60% RH)?
Its value is 0.78%.

And the “Known Related Substances HN67003” value ([3]; 1 month, 25° C./60% RH)?
Its value is 0.04%.

And the “Known Related Substances HN75083” value ([3]; 1 month, 25° C./60% RH)?
The value was 0.03%.

And the “M6G Assay, Anhydrous basis” value ([3]; 1 month, 25° C./60% RH)?
The value was 91.37 % w/w.

What about the “M6G Assay, As is basis” value ([3]; 1 month, 25° C./60% RH) of the same compound?
The value was 84.57 % w/w.

What about the “M6G Assay, Corrected for the salt form” value ([3]; 1 month, 25° C./60% RH) of the same compound?
The value was 110.76 % w/w.

And the “Total Known” value ([3]; 1 month, 25° C./60% RH)?
The value was 0.85%.

What about the “Total Related Substances” value ([3]; 1 month, 25° C./60% RH) of the same compound?
The value was 1.41%.

What about the “Total Unknown” value ([3]; 1 month, 25° C./60% RH) of the same compound?
The value was 0.56%.

What about the “Known Related Substances HN33177” value ([3]; 1 month, 40° C./75% RH) of the same compound?
The value was 0.70%.

And the “Known Related Substances HN67003” value ([3]; 1 month, 40° C./75% RH)?
Its value is 0.53%.

What about the “Known Related Substances HN75083” value ([3]; 1 month, 40° C./75% RH) of the same compound?
Its value is 0.14%.

What about the “M6G Assay, Anhydrous basis” value ([3]; 1 month, 40° C./75% RH) of the same compound?
Its value is 92.00 % w/w.

And the “M6G Assay, As is basis” value ([3]; 1 month, 40° C./75% RH)?
Its value is 80.20 % w/w.

What about the “M6G Assay, Corrected for the salt form” value ([3]; 1 month, 40° C./75% RH) of the same compound?
The value was 111.52 % w/w.

What about the “Total Known” value ([3]; 1 month, 40° C./75% RH) of the same compound?
Its value is 1.37%.

And the “Total Related Substances” value ([3]; 1 month, 40° C./75% RH)?
The value was 3.44%.

And the “Total Unknown” value ([3]; 1 month, 40° C./75% RH)?
Its value is 2.07%.

And the “Known Related Substances HN33177” value ([3]; 1 month, 60° C.)?
The value was 0.70%.

And the “Known Related Substances HN67003” value ([3]; 1 month, 60° C.)?
The value was 0.90%.

And the “Known Related Substances HN75076” value ([3]; 1 month, 60° C.)?
The value was 0.03%.

And the “Known Related Substances HN75083” value ([3]; 1 month, 60° C.)?
The value was 0.27%.

And the “Known Related Substances Morphine” value ([3]; 1 month, 60° C.)?
The value was 0.18%.

And the “M6G Assay, Anhydrous basis” value ([3]; 1 month, 60° C.)?
Its value is 88.33 % w/w.

What about the “M6G Assay, As is basis” value ([3]; 1 month, 60° C.) of the same compound?
Its value is 80.69 % w/w.

What about the “M6G Assay, Corrected for the salt form” value ([3]; 1 month, 60° C.) of the same compound?
The value was 107.08 % w/w.

And the “Total Known” value ([3]; 1 month, 60° C.)?
The value was 2.08%.

What about the “Total Related Substances” value ([3]; 1 month, 60° C.) of the same compound?
Its value is 5.43%.

And the “Total Unknown” value ([3]; 1 month, 60° C.)?
The value was 3.35%.

What about the “stability based on % w/w assay” value ([3]; 3 month assay data) of the same compound?
The value was “most stable”.

And the “Known Related Substances HN33177” value ([3]; 3 months, 25° C./60% RH)?
The value was 0.78%.

And the “Known Related Substances HN67003” value ([3]; 3 months, 25° C./60% RH)?
Its value is 0.16%.

And the “Known Related Substances HN75076” value ([3]; 3 months, 25° C./60% RH)?
Its value is 0.03%.

And the “Known Related Substances HN75083” value ([3]; 3 months, 25° C./60% RH)?
Its value is 0.19%.

And the “Known Related Substances Morphine” value ([3]; 3 months, 25° C./60% RH)?
Its value is 0.07%.

And the “M6G Assay, Anhydrous basis” value ([3]; 3 months, 25° C./60% RH)?
The value was 91.16 % w/w.

And the “M6G Assay, As is basis” value ([3]; 3 months, 25° C./60% RH)?
The value was 84.25 % w/w.

And the “M6G Assay, Corrected for the salt form” value ([3]; 3 months, 25° C./60% RH)?
Its value is 110.50 % w/w.

What about the “Total Known” value ([3]; 3 months, 25° C./60% RH) of the same compound?
The value was 1.23%.

And the “Total Related Substances” value ([3]; 3 months, 25° C./60% RH)?
The value was 2.31%.

What about the “Total Unknown” value ([3]; 3 months, 25° C./60% RH) of the same compound?
Its value is 1.08%.

What about the “Known Related Substances HN33177” value ([3]; 3 months, 40° C./75% RH) of the same compound?
The value was 0.59%.

What about the “Known Related Substances HN67003” value ([3]; 3 months, 40° C./75% RH) of the same compound?
The value was 0.75%.

What about the “Known Related Substances HN75076” value ([3]; 3 months, 40° C./75% RH) of the same compound?
Its value is 0.12%.

What about the “Known Related Substances HN75083” value ([3]; 3 months, 40° C./75% RH) of the same compound?
Its value is 0.06%.

What about the “Known Related Substances Morphine” value ([3]; 3 months, 40° C./75% RH) of the same compound?
The value was 0.32%.

What about the “M6G Assay, Anhydrous basis” value ([3]; 3 months, 40° C./75% RH) of the same compound?
Its value is 92.40 % w/w.

And the “M6G Assay, As is basis” value ([3]; 3 months, 40° C./75% RH)?
The value was 79.02 % w/w.

And the “M6G Assay, Corrected for the salt form” value ([3]; 3 months, 40° C./75% RH)?
Its value is 112.01 % w/w.

What about the “Total Known” value ([3]; 3 months, 40° C./75% RH) of the same compound?
Its value is 1.84%.

What about the “Total Related Substances” value ([3]; 3 months, 40° C./75% RH) of the same compound?
The value was 5.99%.

And the “Total Unknown” value ([3]; 3 months, 40° C./75% RH)?
Its value is 4.15%.

And the “Known Related Substances HN33177” value ([3]; Initial)?
Its value is 0.75%.

What about the “Known Related Substances HN67003” value ([3]; Initial) of the same compound?
Its value is 0.04%.

And the “Known Related Substances HN75083” value ([3]; Initial)?
The value was 0.07%.

What about the “M6G Assay, Anhydrous basis” value ([3]; Initial) of the same compound?
The value was 89.21 % w/w.

And the “M6G Assay, As is basis” value ([3]; Initial)?
The value was 83.90 % w/w.

And the “M6G Assay, Corrected for the salt form” value ([3]; Initial)?
Its value is 108.12 % w/w.

What about the “Total Known” value ([3]; Initial) of the same compound?
Its value is 0.86%.

What about the “Total Related Substances” value ([3]; Initial) of the same compound?
The value was 0.86%.

What about the “Total Unknown” value ([3]; Initial) of the same compound?
The value was 0.00%.

What about the “assay values throughout the study” value ([3]; all storage conditions, material a phosphate/base mixture) of the same compound?
Its value is “around 110%”.

And the Appearance ([4]; 1 month, 25° C./60% RH)?
Its Appearance is “White crystalline powder”.

What about the Appearance ([4]; 1 month, 40° C./75% RH) of the same compound?
Its Appearance is “Slightly yellow crystalline powder”.

And the Appearance ([4]; 1 month, 60° C.)?
Its Appearance is “Pale yellow crystalline powder”.

What about the Appearance ([4]; 3 months, 25° C./60% RH) of the same compound?
The Appearance was “White crystalline powder”.

What about the Appearance ([4]; 3 months, 25° C./60% RH, listed as phosphate) of the same compound?
Its Appearance is “white crystalline solids”.

And the Appearance ([4]; 3 months, 40° C./75% RH)?
Its Appearance is “Slightly yellow crystalline powder”.

And the Appearance ([4]; Initial)?
The Appearance was “White crystalline powder”.
